According to patent US8329950B2, “Process for preparation of trans 4-(3,4-Dichlorophenyl)-1,2,3,4-tetrahydro-1Napthalenamine” (Sunovion Pharmaceuticals Inc., priority 2005, dated 2012):
Values joined by “and” are separate entries in the source; they are usually repeats but may differ in a detail not shown here. Equal values may be shown once.

Tests used:
[1] = molecular target: T1, functional uptake of norepinephrine (NE) (Rattus norvegicus, UniProt Q63380); assay: biochemical; conditions: Table 6; rat synaptosomes
T1 construct: synaptosomes isolated at Cerep in a 0.32 M sucrose buffer from a male Wistar rat hypothalamus; tissue Cerep; host or cells: male Wistar rat hypothalamus synaptosomes
T1 sequence (Q63380 1-617): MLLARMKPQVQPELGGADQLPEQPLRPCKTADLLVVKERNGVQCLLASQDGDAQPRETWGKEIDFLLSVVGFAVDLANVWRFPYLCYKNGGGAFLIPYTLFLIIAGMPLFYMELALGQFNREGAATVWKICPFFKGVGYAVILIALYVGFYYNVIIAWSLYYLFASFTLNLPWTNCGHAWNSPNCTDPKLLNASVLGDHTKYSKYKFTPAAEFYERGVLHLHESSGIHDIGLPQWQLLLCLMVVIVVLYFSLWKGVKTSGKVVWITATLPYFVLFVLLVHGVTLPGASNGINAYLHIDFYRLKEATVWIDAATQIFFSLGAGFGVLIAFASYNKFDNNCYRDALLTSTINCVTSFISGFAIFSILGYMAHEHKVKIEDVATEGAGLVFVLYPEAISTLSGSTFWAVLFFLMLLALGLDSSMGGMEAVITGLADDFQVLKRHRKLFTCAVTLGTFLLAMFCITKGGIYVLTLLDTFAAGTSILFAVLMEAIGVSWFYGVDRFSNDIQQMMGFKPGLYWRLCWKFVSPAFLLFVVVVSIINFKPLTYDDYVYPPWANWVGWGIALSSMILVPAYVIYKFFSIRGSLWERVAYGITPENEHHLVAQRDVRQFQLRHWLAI
Experimental: Characterization of norepinephrine uptake is performed using synaptosomes isolated at Cerep in a 0.32 M sucrose buffer from a male Wistar rat hypothalamus. The uptake of radiolabeled norepinephrine by synaptosomes (100 μg of proteins/point) is allowed by incubating them in a deep well for 20 minutes at 37° C. in presence of test compounds and [^3H]-norepinephrine (0.1 μCi/point).
Synaptosomes and [^3H]-norepinephrine are prepared in a Krebs buffer pH 7.4 containing 25 mM NaHCO3, 11 mM glucose and 50 μM ascorbic acid. This incubation buffer is oxygenated during 5 minutes before incubation. Basal control is incubated for 20 minutes at 4° C. in order to avoid any uptake. Following this incubation the uptake is stopped by filtration through an “unifilter 96-wells GFB “Packard plate washed with Krebs buffer containing 25 mM NaHCO3 in order to eliminate the free [^3H]-norepinephrine. The radioactivity associated to the synaptosomes retained onto the unifilter corresponding to the uptake is then measured with a microplate scintillation counter Topcount, Packard using a scintillation liquid microscint 0, Packard.

[2] = molecular target: T2, functional uptake of dopamine (DA) (Rattus norvegicus, UniProt P23977); assay: Dopamine functional uptake assay in rat striatum synaptosomes; format: biochemical; conditions: Table 6
T2 construct: synaptosomes isolated at Cerep in a 0.32 M sucrose buffer from a male Wistar rat striatum; tissue Cerep; host or cells: male Wistar rat striatum synaptosomes
T2 sequence (P23977 whole entry): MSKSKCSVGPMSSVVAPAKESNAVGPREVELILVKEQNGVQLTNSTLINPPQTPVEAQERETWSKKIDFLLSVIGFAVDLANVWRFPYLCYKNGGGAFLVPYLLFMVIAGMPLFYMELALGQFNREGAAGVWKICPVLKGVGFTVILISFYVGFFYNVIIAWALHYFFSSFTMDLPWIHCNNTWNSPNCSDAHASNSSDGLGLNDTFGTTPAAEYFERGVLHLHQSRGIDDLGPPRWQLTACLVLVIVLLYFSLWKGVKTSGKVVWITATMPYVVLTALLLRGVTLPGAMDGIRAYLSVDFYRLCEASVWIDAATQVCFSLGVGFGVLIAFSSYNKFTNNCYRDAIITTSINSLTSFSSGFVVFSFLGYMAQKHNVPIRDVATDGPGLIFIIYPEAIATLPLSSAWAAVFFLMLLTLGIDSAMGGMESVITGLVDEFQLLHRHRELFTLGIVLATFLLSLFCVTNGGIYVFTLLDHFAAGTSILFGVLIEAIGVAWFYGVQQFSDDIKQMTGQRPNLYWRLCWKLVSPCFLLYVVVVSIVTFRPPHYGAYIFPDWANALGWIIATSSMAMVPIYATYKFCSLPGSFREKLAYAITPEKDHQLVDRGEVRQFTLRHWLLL
Experimental: Characterization of dopamine uptake is performed using synaptosomes isolated at Cerep in a 0.32 M sucrose buffer from a male Wistar rat striatum. The uptake of radiolabelled dopamine by synaptosomes (20 μg of proteins/point) is allowed by incubating them in a deep well for 15 minutes at 37° C. in presence of test compounds and [^3H]-dopamine (0.1 μCi/point).
Synaptosomes and [^3H]-dopamine are prepared in a Krebs buffer pH 7.4 containing 25 mM NaHCO3, 11 mM glucose and 50 μM ascorbic acid. This incubation buffer is oxygenated during 5 minutes before incubation. Basal control is incubated for 15 minutes at 4° C. in order to avoid any uptake. Following this incubation the uptake is stopped by filtration through an “unifilter 96-wells GFB “Packard plate washed with Krebs buffer containing 25 mM NaHCO3 in order to eliminate the free [^3H]-dopamine. The radioactivity associated to the synaptosomes retained onto the unifilter corresponding to the uptake is then measured with a microplate scintillation counter Topcount, Packard using a scintillation liquid microscint 0, Packard.

[3] = system: women with insomnia secondary to perimenopause or menopause; assay: Clinical study, number of nocturnal awakenings due to hot flashes; format: in vivo, human; conditions: 3 mg nightly, Intent-to-Treat; for Nocturnal Awakenings due to Hot Flashes, Change from Baseline, Least Squares Means (SE): ANCOVA; for Nocturnal Awakenings due to Hot Flashes, Observed Value, Least Squares Means (SE): ANOVA
Experimental: (§1) The study was aimed at observing efficacy of eszopiclone 3 mg compared to placebo in the treatment of insomnia secondary to perimenopause or menopause.
(§2) The study was a multicenter, randomized, double-blind, placebo-controlled, parallel-group study. […] The primary method of analysis compared the post-randomization results between the two treatment groups.
(§3) Subjects were women with insomnia secondary to perimenopause or menopause. Subjects were perimenopausal or menopausal and had insomnia symptoms including ≧45 minutes sleep latency (SL) and total sleep time (TST)≦6 hours. Perimenopausal/menopausal symptoms predated the onset of sleep disturbance symptoms. The patient population was predominately Caucasian (77.2%). The mean age was 49, with a range of 40-60.
(§4) A total of 410 subjects were randomized. Among them, 201 received 3 mg of eszopiclone (ESZ) nightly (at bedtime) for four weeks and 209 received matching placebo (PBO).

[4] = system: women with insomnia secondary to perimenopause or menopause; assay: Clinical study, Physician Global Assessment; format: in vivo, human; conditions: Visit 5 (Week 4), 3 mg nightly; for Physician Global Assessment, Observed Value, Least Squares Means (SE): ANOVA
Experimental: as §1, §2, §3, §4
A Physician Global Assessment was administered at Week 4, the end of the double-blind treatment period.

mice = assay: Behavioral Despair Test (Porsolt swim test) in mice; format: in vivo; conditions: for Immobility Duration, Mean: N = 10
[5] = score 1 = Very much improved to 7 = Very much worse

With `N[C@@H]1CC[C@@H](c2ccc(Cl)c(Cl)c2)c2ccccc21` (relative stereo) [P + Q, trans 4-(3,4-dichlorophenyl)-1,2,3,4-tetrahydro-1-napthalenamine] the IC50 [1] was 8.8 nM and the IC50 ([2]; rat synaptosomes) was 7.1 nM.
For `CN1CCN(C(=O)O[C@H]2c3nccnc3C(=O)N2c2ccc(Cl)cn2)CC1` [Eszopiclone, (+) 6-(5-chloropyrid-2-yl)-5-(4-methylpiperazin-1-yl)carbonyloxy-7-oxo-6,7-dihydro-5H-pyrrolo[3-4-b]pyrazine], the “Nocturnal Awakenings due to Hot Flashes, Change from Baseline, 25th Percentile” value ([3]; DB Average) was −1.1, the “Nocturnal Awakenings due to Hot Flashes, Change from Baseline, 75th Percentile” value ([3]; DB Average) was 0.0 and the “Nocturnal Awakenings due to Hot Flashes, Change from Baseline, Maximum” value ([3]; DB Average) was 1.5. The “Nocturnal Awakenings due to Hot Flashes, Change from Baseline, Mean (SD)” value ([3]; DB Average) was −0.7 (1.0), the “Nocturnal Awakenings due to Hot Flashes, Change from Baseline, Median” value ([3]; DB Average) was −0.5 and the “Nocturnal Awakenings due to Hot Flashes, Change from Baseline, Minimum” value ([3]; DB Average) was −6.0. For the same compound, the “Nocturnal Awakenings due to Hot Flashes, Observed Value, 25th Percentile” value ([3]; DB Average) was 0.0, the “Nocturnal Awakenings due to Hot Flashes, Observed Value, 75th Percentile” value ([3]; DB Average) was 0.9 and the “Nocturnal Awakenings due to Hot Flashes, Observed Value, Maximum” value ([3]; DB Average) was 2.7. The “Nocturnal Awakenings due to Hot Flashes, Observed Value, Mean (SD)” value ([3]; DB Average) was 0.5 (0.6), the “Nocturnal Awakenings due to Hot Flashes, Observed Value, Median” value ([3]; DB Average) was 0.2 and the “Nocturnal Awakenings due to Hot Flashes, Observed Value, Minimum” value ([3]; DB Average) was 0.0. For the same compound, the “Nocturnal Awakenings due to Hot Flashes, Change from Baseline, Least Squares Means (SE)” value ([3]; DB Average) was −0.7 (0.1), the “Nocturnal Awakenings due to Hot Flashes, Observed Value, Least Squares Means (SE)” value ([3]; DB Average) was 0.5 (0.1) and the “Nocturnal Awakenings due to Hot Flashes, Change from Baseline, 25th Percentile” value ([3]; Week 1) was −1.2. The “Nocturnal Awakenings due to Hot Flashes, Change from Baseline, 75th Percentile” value ([3]; Week 1) was 0.0, the “Nocturnal Awakenings due to Hot Flashes, Change from Baseline, Maximum” value ([3]; Week 1) was 0.8 and the “Nocturnal Awakenings due to Hot Flashes, Change from Baseline, Mean (SD)” value ([3]; Week 1) was −0.7 (1.0). For the same compound, the “Nocturnal Awakenings due to Hot Flashes, Change from Baseline, Median” value ([3]; Week 1) was −0.5, the “Nocturnal Awakenings due to Hot Flashes, Change from Baseline, Minimum” value ([3]; Week 1) was −6.0 and the “Nocturnal Awakenings due to Hot Flashes, Observed Value, 25th Percentile” value ([3]; Week 1) was 0.0. The “Nocturnal Awakenings due to Hot Flashes, Observed Value, 75th Percentile” value ([3]; Week 1) was 1.0, the “Nocturnal Awakenings due to Hot Flashes, Observed Value, Maximum” value ([3]; Week 1) was 3.0 and the “Nocturnal Awakenings due to Hot Flashes, Observed Value, Mean (SD)” value ([3]; Week 1) was 0.5 (0.7). The “Nocturnal Awakenings due to Hot Flashes, Observed Value, Median” value ([3]; Week 1) was 0.2, the “Nocturnal Awakenings due to Hot Flashes, Observed Value, Minimum” value ([3]; Week 1) was 0.0 and the “Nocturnal Awakenings due to Hot Flashes, Change from Baseline, Least Squares Means (SE)” value ([3]; Week 1) was −0.7 (0.1). For the same compound, the “Nocturnal Awakenings due to Hot Flashes, Observed Value, Least Squares Means (SE)” value ([3]; Week 1) was 0.5 (0.1), the “Nocturnal Awakenings due to Hot Flashes, Observed Value, Least Squares Means (SE)” value ([3]; Week 1, listed as ESZ) was 0.3 and the “Nocturnal Awakenings due to Hot Flashes, Change from Baseline, 25th Percentile” value ([3]; Week 2) was −1.0. The “Nocturnal Awakenings due to Hot Flashes, Change from Baseline, 75th Percentile” value ([3]; Week 2) was 0.0, the “Nocturnal Awakenings due to Hot Flashes, Change from Baseline, Maximum” value ([3]; Week 2) was 2.0 and the “Nocturnal Awakenings due to Hot Flashes, Change from Baseline, Mean (SD)” value ([3]; Week 2) was −0.7 (1.0). The “Nocturnal Awakenings due to Hot Flashes, Change from Baseline, Median” value ([3]; Week 2) was −0.6, the “Nocturnal Awakenings due to Hot Flashes, Change from Baseline, Minimum” value ([3]; Week 2) was −6.0 and the “Nocturnal Awakenings due to Hot Flashes, Observed Value, 25th Percentile” value ([3]; Week 2) was 0.0. The “Nocturnal Awakenings due to Hot Flashes, Observed Value, 75th Percentile” value ([3]; Week 2) was 1.0, the “Nocturnal Awakenings due to Hot Flashes, Observed Value, Maximum” value ([3]; Week 2) was 3.0 and the “Nocturnal Awakenings due to Hot Flashes, Observed Value, Mean (SD)” value ([3]; Week 2) was 0.5 (0.7). For the same compound, the “Nocturnal Awakenings due to Hot Flashes, Observed Value, Median” value ([3]; Week 2) was 0.0, the “Nocturnal Awakenings due to Hot Flashes, Observed Value, Minimum” value ([3]; Week 2) was 0.0 and the “Nocturnal Awakenings due to Hot Flashes, Change from Baseline, Least Squares Means (SE)” value ([3]; Week 2) was −0.6 (0.1). For the same compound, the “Nocturnal Awakenings due to Hot Flashes, Observed Value, Least Squares Means (SE)” value ([3]; Week 2) was 0.5 (0.1), the “Nocturnal Awakenings due to Hot Flashes, Change from Baseline, 25th Percentile” value ([3]; Week 3) was −1.0 and the “Nocturnal Awakenings due to Hot Flashes, Change from Baseline, 75th Percentile” value ([3]; Week 3) was 0.0. The “Nocturnal Awakenings due to Hot Flashes, Change from Baseline, Maximum” value ([3]; Week 3) was 1.5, the “Nocturnal Awakenings due to Hot Flashes, Change from Baseline, Mean (SD)” value ([3]; Week 3) was −0.7 (1.1) and the “Nocturnal Awakenings due to Hot Flashes, Change from Baseline, Median” value ([3]; Week 3) was −0.4. For the same compound, the “Nocturnal Awakenings due to Hot Flashes, Change from Baseline, Minimum” value ([3]; Week 3) was −6.0, the “Nocturnal Awakenings due to Hot Flashes, Observed Value, 25th Percentile” value ([3]; Week 3) was 0.0 and the “Nocturnal Awakenings due to Hot Flashes, Observed Value, 75th Percentile” value ([3]; Week 3) was 1.0. For the same compound, the “Nocturnal Awakenings due to Hot Flashes, Observed Value, Maximum” value ([3]; Week 3) was 3.0, the “Nocturnal Awakenings due to Hot Flashes, Observed Value, Mean (SD)” value ([3]; Week 3) was 0.5 (0.7) and the “Nocturnal Awakenings due to Hot Flashes, Observed Value, Median” value ([3]; Week 3) was 0.0. For the same compound, the “Nocturnal Awakenings due to Hot Flashes, Observed Value, Minimum” value ([3]; Week 3) was 0.0, the “Nocturnal Awakenings due to Hot Flashes, Change from Baseline, Least Squares Means (SE)” value ([3]; Week 3) was −0.6 (0.1) and the “Nocturnal Awakenings due to Hot Flashes, Observed Value, Least Squares Means (SE)” value ([3]; Week 3) was 0.5 (0.1). For the same compound, the “Nocturnal Awakenings due to Hot Flashes, Change from Baseline, 25th Percentile” value ([3]; Week 4) was −1.3, the “Nocturnal Awakenings due to Hot Flashes, Change from Baseline, 75th Percentile” value ([3]; Week 4) was 0.0 and the “Nocturnal Awakenings due to Hot Flashes, Change from Baseline, Maximum” value ([3]; Week 4) was 2.1. The “Nocturnal Awakenings due to Hot Flashes, Change from Baseline, Mean (SD)” value ([3]; Week 4) was −0.8 (1.2), the “Nocturnal Awakenings due to Hot Flashes, Change from Baseline, Median” value ([3]; Week 4) was −0.7 and the “Nocturnal Awakenings due to Hot Flashes, Change from Baseline, Minimum” value ([3]; Week 4) was −6.0. The “Nocturnal Awakenings due to Hot Flashes, Observed Value, 25th Percentile” value ([3]; Week 4) was 0.0, the “Nocturnal Awakenings due to Hot Flashes, Observed Value, 75th Percentile” value ([3]; Week 4) was 1.0 and the “Nocturnal Awakenings due to Hot Flashes, Observed Value, Maximum” value ([3]; Week 4) was 3.6. For the same compound, the “Nocturnal Awakenings due to Hot Flashes, Observed Value, Mean (SD)” value ([3]; Week 4) was 0.4 (0.7), the “Nocturnal Awakenings due to Hot Flashes, Observed Value, Median” value ([3]; Week 4) was 0.0 and the “Nocturnal Awakenings due to Hot Flashes, Observed Value, Minimum” value ([3]; Week 4) was 0.0. The “Nocturnal Awakenings due to Hot Flashes, Change from Baseline, Least Squares Means (SE)” value ([3]; Week 4) was −0.7 (0.1), the “Nocturnal Awakenings due to Hot Flashes, Observed Value, Least Squares Means (SE)” value ([3]; Week 4) was 0.4 (0.1) and the “Physician Global Assessment, Change from Baseline, 25th Percentile” value [4] was −2.0. The “Physician Global Assessment, Change from Baseline, 75th Percentile” value [4] was 0.0, the “Physician Global Assessment, Change from Baseline, Maximum” value [4] was 6.0 and the “Physician Global Assessment, Change from Baseline, Mean (SD)” value [4] was −1.0 (1.4). For the same compound, the “Physician Global Assessment, Change from Baseline, Median” value [4] was −1.0, the “Physician Global Assessment, Change from Baseline, Minimum” value [4] was −4.0 and the “Physician Global Assessment, Change from Baseline, Least Squares Means (SE)” value ([4]; ANCOVA) was −0.9 (0.1). For the same compound, the “Physician Global Assessment, Observed Value, Least Squares Means (SE)” value [4] was 2.7 (0.1), the “Physician Global Assessment, Observed Value, Least Squares Means (SE)” value ([4]; listed as ESZ) was 2.7 and the “Physician Global Assessment, Observed Value, 25th Percentile” value [4, 5] was 2.0. For the same compound, the “Physician Global Assessment, Observed Value, 75th Percentile” value [4, 5] was 4.0, the “Physician Global Assessment, Observed Value, Maximum” value [4, 5] was 6.0 and the “Physician Global Assessment, Observed Value, Mean (SD)” value [4, 5] was 2.6 (1.2). The “Physician Global Assessment, Observed Value, Median” value [4, 5] was 2.0 and the “Physician Global Assessment, Observed Value, Minimum” value [4, 5] was 1.0.
With `CNCCCC1c2ccccc2C=Cc2ccccc21` [protriptyline] the “inhibition of DA uptake” value ([2]; tested initially at 10 μM) was “— (— <50% inhibition)”.
For `N[C@@H]1CC[C@@H](c2ccc(Cl)c(Cl)c2)c2ccccc21` [P, (1R,4S)-trans 4-(3,4-dichlorophenyl)-1,2,3,4-tetrahydro-1-napthalenamine], the “Immobility Duration, individual mice” value (mice; 0.03 mg/kg intraperitoneal) was 129 s and 99 s and 107 s and 159 s and 102 s and 115 s and 122 s and 128 s and 120 s and 96 s, the “Immobility Duration, Mean” value (mice; 0.03 mg/kg intraperitoneal) was 118 s and the “Immobility Duration, individual mice” value (mice; 0.1 mg/kg intraperitoneal) was 100 s and 103 s and 76 s and 109 s and 56 s and 98 s and 62 s and 119 s and 96 s and 85 s. For the same compound, the “Immobility Duration, Mean” value (mice; 0.1 mg/kg intraperitoneal) was 90 s, the “Immobility Duration, individual mice” value (mice; 0.3 mg/kg intraperitoneal) was 93 s and 23 s and 102 s and 110 s and 106 s and 98 s and 120 s and 114 s and 109 s and 115 s and the “Immobility Duration, Mean” value (mice; 0.3 mg/kg intraperitoneal) was 99 s. The “Immobility Duration, individual mice” value (mice; 1 mg/kg intraperitoneal) was 34 sec and 51 sec (2×) and 35 sec and 19 sec and 81 sec and 50 sec and 29 sec and 66 sec and 87 sec, the “Immobility Duration, Mean” value (mice; 1 mg/kg intraperitoneal) was 50 s and the “Immobility Duration, individual mice” value (mice; 3 mg/kg intraperitoneal) was 3 sec and 17 sec and 5 sec and 0 sec (3×) and 40 sec and 26 sec and 12 sec and 49 sec. For the same compound, the “Immobility Duration, Mean” value (mice; 3 mg/kg intraperitoneal) was 15 s.
